Laboratory results reported in publication PMC3723878 (PLoS ONE, 2013).
Positions count from the first letter of the chain named.

Assays:
Assay in all cases: Saturation binding of ^125I-HEAT
[1] = molecular target: T1, human α1A-AR F193A variant (Homo sapiens, UniProt P35348, F193A)
T1 construct: expressed in transfected cells; host or cells: COS-7, transient (calcium phosphate)
T1 sequence (P35348 1-466 F193A): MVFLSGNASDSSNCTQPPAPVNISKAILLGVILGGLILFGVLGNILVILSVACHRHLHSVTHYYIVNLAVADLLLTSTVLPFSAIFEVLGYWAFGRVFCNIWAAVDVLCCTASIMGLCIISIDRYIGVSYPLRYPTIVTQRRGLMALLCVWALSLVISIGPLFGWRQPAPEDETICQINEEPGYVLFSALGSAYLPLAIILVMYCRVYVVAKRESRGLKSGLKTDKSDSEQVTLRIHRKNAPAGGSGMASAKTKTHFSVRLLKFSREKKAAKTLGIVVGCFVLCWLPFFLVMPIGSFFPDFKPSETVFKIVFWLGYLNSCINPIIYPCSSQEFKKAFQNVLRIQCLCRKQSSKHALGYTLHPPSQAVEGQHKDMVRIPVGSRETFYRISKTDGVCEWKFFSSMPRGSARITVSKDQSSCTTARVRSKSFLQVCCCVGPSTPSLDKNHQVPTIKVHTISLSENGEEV

[2] = molecular target: T2, human α1A-AR F312A variant (Homo sapiens, UniProt P35348, F312A)
T2 construct: expressed in transfected cells; host or cells: COS-7 (transient, calcium phosphate), membranes
T2 sequence (P35348 1-466 F312A): T1 sequence (P35348 1-466 F193A) with A193F, F312A

human α1A-AR WT = molecular target: T3, human α1A-AR WT (Homo sapiens, UniProt P35348)
T3 construct: expressed in transfected cells; host or cells: COS-7, transient (calcium phosphate)
T3 sequence (P35348 1-466): T1 sequence (P35348 1-466 F193A) with A193F

`O=C1c2ccccc2CCC1CNCCc1ccc(O)c([125I])c1` (centres unmarked) [125I-HEAT] was tested, and the “^125I-HEAT Ratio (loss of affinity relative to WT)” value [1] was 2.8, the “^125I-HEAT Ratio (loss of affinity relative to WT)” value ([2]; F312A) was 0.44 and the “^125I-HEAT pKd” value ([2]; F312A (7.39), saturation binding, n = 3–6) was 10.40±0.10. The “^125I-HEAT Ratio (affinity relative to WT)” value (human α1A-AR WT) was 1 and the “^125I-HEAT pKd” value (human α1A-AR WT; saturation binding, n = 3–6) was 10.05±0.14.
